Measured values: patent US20220213126A1, “SMALL MOLECULE AUTOPHAGY INDUCERS FOR THE TREATMENT OF CANCER AND NEURODEGENERATIVE DISEASES” (John Wayne Cancer Institute, priority 2019, published 2022)
In brackets after ≈: the same amount, converted by molar mass. Several values for one entry are separate records, joined by “and”; a condition that tells them apart may be missing. Identical values can stand only once.

Key:
GBM4 = assay: GBM cell viability, Alamar blue, 72 hours; assay type: cell-based; details: GBM4, patient-derived cell line
Description: (§1) The effect of VMY-BC-1 was tested on a panel of GBM cell lines. […] In this study 100 μM was the highest drug concentration used, with 3-fold dilution for a 10 dose response curve.

GL261 = assay: GBM cell viability, Alamar blue, 72 hours; assay type: cell-based; details: Mus musculus, GL261, established glioma cell line
Description: as §1

GBM8 = assay: GBM cell viability, Alamar blue, 72 hours; assay type: cell-based; details: GBM8, patient-derived cell line
Description: as §1

U251 = assay: GBM cell viability, Alamar blue, 72 hours; assay type: cell-based; details: Homo sapiens, U-251, U251, established glioma cell line
Description: as §1

U87 = assay: GBM cell viability, Alamar blue, 72 hours; assay type: cell-based; details: Homo sapiens, U-87 MG, U87, established glioma cell line
Description: as §1

[1] = Brain pharmacokinetics in mice; assay type: in vivo
Description: Pharmacokinetics of VMY-BC-1 in the brain were assessed in mice administered 25 mg/kg VMY-BC-1 p.o. (Table 6).
(§2) Free drug fraction in brain and plasma compartment was determined in vitro (Table 7). Brain to plasma (B/P) ratio was also determined in vivo (Table 8).

CYP2C9 = biological target: T1, CYP2C9 (Homo sapiens, UniProt P11712); assay: CYP inhibition in pooled human liver microsomes; assay type: in vitro ADME
T1 construct: from tissue; host or cells: pooled human liver microsomes
T1 sequence (P11712 whole entry): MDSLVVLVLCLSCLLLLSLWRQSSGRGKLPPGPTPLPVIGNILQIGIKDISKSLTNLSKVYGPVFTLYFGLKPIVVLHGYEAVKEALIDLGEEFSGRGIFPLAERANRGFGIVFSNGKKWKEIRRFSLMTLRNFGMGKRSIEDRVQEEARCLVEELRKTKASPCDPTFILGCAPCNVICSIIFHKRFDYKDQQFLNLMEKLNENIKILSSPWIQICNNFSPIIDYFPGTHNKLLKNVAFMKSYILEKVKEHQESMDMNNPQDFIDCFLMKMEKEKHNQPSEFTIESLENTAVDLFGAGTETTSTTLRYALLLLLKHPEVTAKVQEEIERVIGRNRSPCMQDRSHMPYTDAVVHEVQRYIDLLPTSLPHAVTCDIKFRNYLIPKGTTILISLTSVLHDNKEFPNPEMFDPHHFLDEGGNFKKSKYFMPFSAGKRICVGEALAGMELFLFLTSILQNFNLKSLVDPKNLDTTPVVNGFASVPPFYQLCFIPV

[2] = Stability in simulated intestinal fluid; assay type: physicochemical
MDA-MB-231 = assay: TMT quantitative proteomics with Ingenuity Pathway Analysis; assay type: cell-based; details: 10 μM
Description: A global quantitative proteomics approach using multiplexed tandem mass tagged (TMT) isotope labeling technology and shotgun mass spectrometry (Hung et al., Anal. Chem. 84:161-170, 2012) (FIG. 3) was used to quantitate approximately 5,400 proteins. MDA-MB-231 cells were treated with vehicle control (DMSO) or 10 μM VMY-BC-1 for 4 time points. Equal amounts of protein from cell lysates were trypsin digested (Step 1) and labelled with TMT 10-plex reagent (Step 2).

Thermodynamic solubility = assay type: physicochemical; details: pH 7.4, aqueous buffer, thermodynamic from solid
Description: Moreover, PK studies of RSV in humans conclude that even high concentration of RSV might be insufficient to achieve in vivo concentrations required for the systemic prevention of cancer. Therefore, in vitro ADME assays were carried out to assess VMY-BC-1 and to identify properties for further optimization.

[3] = Mouse plasma protein binding (in vitro binding study); assay type: in vitro ADME, CD1 mouse
Description: as §2

[4] = Mouse brain homogenate binding (in vitro binding study); assay type: in vitro ADME
Description: as §2

NHA = assay: Normal cell viability, Alamar blue, 72 hours; assay type: cell-based; details: normal cell line
Description: as §1

[5] = Normal cell viability, Alamar blue, 72 hours; assay type: cell-based; details: MRCS, normal cell line
Description: as §1

Caco-2 permeability = assay type: in vitro ADME; details: human, Caco-2
Caco-2 cell model = assay: Caco-2 permeability; assay type: in vitro ADME
CYP1A2 = biological target: T2, CYP1A2 (Homo sapiens, UniProt P05177); assay: CYP inhibition in pooled human liver microsomes; assay type: in vitro ADME
T2 construct: from tissue; host or cells: pooled human liver microsomes
T2 sequence (P05177 whole entry): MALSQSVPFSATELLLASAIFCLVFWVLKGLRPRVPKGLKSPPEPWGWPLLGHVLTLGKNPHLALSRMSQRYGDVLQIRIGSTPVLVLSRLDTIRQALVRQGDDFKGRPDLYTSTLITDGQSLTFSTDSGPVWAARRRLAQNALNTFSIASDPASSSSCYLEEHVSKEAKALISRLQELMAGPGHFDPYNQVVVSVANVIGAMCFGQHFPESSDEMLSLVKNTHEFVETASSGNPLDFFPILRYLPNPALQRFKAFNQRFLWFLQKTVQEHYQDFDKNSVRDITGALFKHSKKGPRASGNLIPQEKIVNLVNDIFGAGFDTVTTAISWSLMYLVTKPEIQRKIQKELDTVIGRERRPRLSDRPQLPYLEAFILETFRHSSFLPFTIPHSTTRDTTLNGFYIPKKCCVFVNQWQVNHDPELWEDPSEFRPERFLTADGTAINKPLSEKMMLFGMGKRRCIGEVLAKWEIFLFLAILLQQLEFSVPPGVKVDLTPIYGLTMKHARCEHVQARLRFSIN

[6] = test system: proteins of MDA-MB-1 cells; assay: Thermal proteome profiling (TPP) for binding proteins
Description: To further elucidate targets that activate the above signaling mechanisms, thermal proteome profiling (TPP) was used to identify binding proteins (Franken et al., Nat. Protoc. 10:1567-1593, 2015; Miettinen et al., EMBO J. 37:e98359, 2018) (FIG. 5A). TPP enables an unbiased assessment of the proteins […] bound to VMY-BC-1 on a proteome-wide scale. Cell lysates were made from MDA-MB-1 cells treated with vehicle or 10 μM VMY-BC-1 for 24 hours. Lysates were heated at different temperatures for 3 minutes in a thermal cycler. Equal amounts of protein were digested, labeled with TMT 10-plex and analyzed by mass spectrometry. The fold-changes in protein abundances were computed relative to the lowest temperature in the temperature set. After a normalization, melting curves were fitted to the fold-changes of each individual protein. The thermal stability of proteins affected by VMY-BC-1 treatment was calculated using the differences between melting points from control for each protein. From the 5,634 proteins screened, 10 target proteins were identified that bound VMY-BC-1: LIMK1, ATM, CDLK5, ULK1, WNK1, PP2C, AK1, IKBKAP, Q53E18, and HDAC1 (FIG. 5B).

[7] = 25 mg/kg single dose P.O., 0.00 h
[8] = 25 mg/kg single dose P.O., 12.00 h
[9] = 25 mg/kg single dose P.O., 24.00 h

For `COc1ccc(/C=C/c2cc(OC)cc(B(O)O)c2)cc1` [VMY-BC-1], the IC50 (GBM4) was 11 µM, the IC50 (GL261) was 4.2 µM and the IC50 (GBM8) was 9.28 µM. The IC50 (U251) was 3.98 µM, the IC50 (U87) was 5.88 µM and the Mean Brain Concentration [1, 7] was 0 ng/g. The Mean Plasma Concentration [1, 7] was 0 ng/mL, the “Mean Brain Concentration” value ([1]; 25 mg/kg single dose P.O., 0.50 h, in ng/g) was 40017.53 and the “Mean Plasma Concentration” value ([1]; 25 mg/kg single dose P.O., 0.50 h, in ng/mL) was 5273.66. The “Mean Brain Concentration” value ([1]; 25 mg/kg single dose P.O., 1.00 h, in ng/g) was 28802.80, the “Mean Plasma Concentration” value ([1]; 25 mg/kg single dose P.O., 1.00 h, in ng/mL) was 5486.04 and the “Mean Brain Concentration” value ([1]; 25 mg/kg single dose P.O., 3.00 h, in ng/g) was 6158.13. For the same molecule, the “Mean Plasma Concentration” value ([1]; 25 mg/kg single dose P.O., 3.00 h, in ng/mL) was 1945.44, the “Mean Brain Concentration” value ([1]; 25 mg/kg single dose P.O., 6.00 h, in ng/g) was 1948.79 and the “Mean Plasma Concentration” value ([1]; 25 mg/kg single dose P.O., 6.00 h, in ng/mL) was 889.87. It also gave a Mean Brain Concentration [1, 8] of 0 ng/g, a Mean Plasma Concentration [1, 8] of 0 ng/mL and a Mean Brain Concentration [1, 9] of 0 ng/g. For the same molecule, the Mean Plasma Concentration [1, 9] was 0 ng/mL, the AUCextrap ([1]; Brain, oral 25 mg/kg) was 4.74% and the AUCinf ([1]; Brain, oral 25 mg/kg) was 78032.82 ng·h/g. For the same molecule, the AUClast ([1]; Brain, oral 25 mg/kg) was 74330.76 ng·h/g, the AUCextrap ([1]; Plasma, oral 25 mg/kg) was 13.75% and the Kp at 0 h ([1]; mouse, brain and plasma, oral, 25 mg/kg single dose P.O., 0.00 h, read-out: Brain to Plasma Ratio) was 0. It also gave a Kp at 12 h ([1]; mouse, brain and plasma, oral, 25 mg/kg single dose P.O., 12.00 h, read-out: Brain to Plasma Ratio) of 0, a Kp at 24 h ([1]; mouse, brain and plasma, oral, 25 mg/kg single dose P.O., 24.00 h, read-out: Brain to Plasma Ratio) of 0 and a Kp ([1]; mouse, brain and plasma, po, 25 mg/kg p.o., read-out: Cmax relative to plasma) of 7. The Kp at 0.5 h ([1]; mouse, brain and plasma, po, 25 mg/kg single dose P.O., 0.50 h, read-out: Brain to Plasma Ratio) was 7.59, the Kp at 1 h ([1]; mouse, brain and plasma, po, 25 mg/kg single dose P.O., 1.00 h, read-out: Brain to Plasma Ratio) was 5.25 and the Kp at 3 h ([1]; mouse, brain and plasma, po, 25 mg/kg single dose P.O., 3.00 h, read-out: Brain to Plasma Ratio) was 3.17. For the same molecule, the Kp at 6 h ([1]; mouse, brain and plasma, po, 25 mg/kg single dose P.O., 6.00 h, read-out: Brain to Plasma Ratio) was 2.19, the Cmax ([1]; mouse, Brain, oral 25 mg/kg) was 40000 ng/g and the MRT last ([1]; mouse, Brain, oral 25 mg/kg) was 1.48 h. The Tmax ([1]; mouse, Brain, oral 25 mg/kg) was 0.5 h, the half-life ([1]; mouse, Brain, oral 25 mg/kg) was 1.32 h and the AUC(0-inf) ([1]; mouse, Plasma, oral 25 mg/kg) was 18200 ng·h/mL. It also gave an AUC(0-t) ([1]; mouse, Plasma, oral 25 mg/kg) of 15700 ng·h/mL, a Cmax ([1]; mouse, Plasma, oral 25 mg/kg) of 5490 ng/mL and an MRT last ([1]; mouse, Plasma, oral 25 mg/kg) of 1.96 h. For the same molecule, the Tmax ([1]; mouse, Plasma, oral 25 mg/kg) was 1 h, the half-life ([1]; mouse, Plasma, oral 25 mg/kg) was 1.95 h and the IC50 (CYP2C9) was 78.4 µM. The “Stability in simulated intestinal fluid” value [2] was 97.24% remaining, the “Stability in simulated intestinal fluid (words)” value [2] was “stable” and the “Pathways altered (Ingenuity Pathway Analysis)” value (MDA-MB-231) was “activation of apoptosis, autophagy, and DNA damage pathways, and inhibition of mTOR1, PI3K, and AKT pathways”. It also gave a solubility thermodynamic (Thermodynamic solubility) of 0.31 µM (≈ 0.0881 µg/mL), a recovery ([3]; CD1, mouse, mouse plasma) of 89.3% and a fraction unbound ([3]; CD1, mouse, plasma, Table 3) of 0.265. For the same molecule, the “Plasma protein binding” value ([3]; CD1 mouse plasma) was “moderate plasma protein binding”, the “Bound (%)” value ([3]; Mouse Plasma) was 73.48% and the “fu (%)” value ([3]; Mouse Plasma) was 26.52%. The “Bound (%)” value ([4]; Mouse Brain Homogenate) was 30.08%, the fraction unbound ([4]; Mouse Brain Homogenate) was 0.699 and the recovery ([4]; mouse, mouse brain homogenate) was 108%. For the same molecule, the IC50 (NHA) was 26.5 µM, the IC50 [5] was 35.3 µM and the efflux ratio (Caco-2 permeability) was 0.4. The Papp A→B (Caco-2 permeability; A-B) was 51 ×10⁻⁶ cm/s, the Papp B→A (Caco-2 permeability; B-A) was 20 ×10⁻⁶ cm/s and the “Permeability in Caco-2 cell model” value (Caco-2 cell model) was “high permeability”. The IC50 (CYP1A2) was 5 µM and 4.7 µM, the “Target proteins identified that bound VMY-BC-1” value ([6]; 10 μM, 24 hours, 5,634 proteins screened) was 10 and the “Fraction of bound protein” value ([6]; of 5,634 proteins screened) was 0.0017 fraction.
